Laboratory results taken from patent publication EP4800015A1, “AZABICYCLO DERIVATIVE AND PREPARATION METHOD THEREFOR, AND USE” (Zhejiang Hisun Pharmaceutical Co., Ltd., priority 2023, dated 2025).
pIC50: −log10 of the molar value.

target: T1, recombinant human WRN (Homo sapiens, UniProt Q14191); experiment: Inhibition of WRN enzyme activity (ATPase), ADP-Glo Kinase Assay; type: biochemical; conditions: WRN protein 5 nM, Flap 0.1 nM, ATP 30 µM; read-out: IC50
T1 construct: purchased BPS 101264
How it was run: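 ATPase activity was measured by ADP-Glo luminescence after a 10-min room-temperature reaction with 30 µM ATP and 0.1 nM Flap26 oligonucleotide substrate. The 5 nM WRN had first been exposed to compound (0.004–1000 nM) for 15 min in pH 7.5 Tris buffer with 2 mM MgCl2. IC50 values came from log-concentration regression against the DMSO control.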

T1 sequence (Q14191 whole entry): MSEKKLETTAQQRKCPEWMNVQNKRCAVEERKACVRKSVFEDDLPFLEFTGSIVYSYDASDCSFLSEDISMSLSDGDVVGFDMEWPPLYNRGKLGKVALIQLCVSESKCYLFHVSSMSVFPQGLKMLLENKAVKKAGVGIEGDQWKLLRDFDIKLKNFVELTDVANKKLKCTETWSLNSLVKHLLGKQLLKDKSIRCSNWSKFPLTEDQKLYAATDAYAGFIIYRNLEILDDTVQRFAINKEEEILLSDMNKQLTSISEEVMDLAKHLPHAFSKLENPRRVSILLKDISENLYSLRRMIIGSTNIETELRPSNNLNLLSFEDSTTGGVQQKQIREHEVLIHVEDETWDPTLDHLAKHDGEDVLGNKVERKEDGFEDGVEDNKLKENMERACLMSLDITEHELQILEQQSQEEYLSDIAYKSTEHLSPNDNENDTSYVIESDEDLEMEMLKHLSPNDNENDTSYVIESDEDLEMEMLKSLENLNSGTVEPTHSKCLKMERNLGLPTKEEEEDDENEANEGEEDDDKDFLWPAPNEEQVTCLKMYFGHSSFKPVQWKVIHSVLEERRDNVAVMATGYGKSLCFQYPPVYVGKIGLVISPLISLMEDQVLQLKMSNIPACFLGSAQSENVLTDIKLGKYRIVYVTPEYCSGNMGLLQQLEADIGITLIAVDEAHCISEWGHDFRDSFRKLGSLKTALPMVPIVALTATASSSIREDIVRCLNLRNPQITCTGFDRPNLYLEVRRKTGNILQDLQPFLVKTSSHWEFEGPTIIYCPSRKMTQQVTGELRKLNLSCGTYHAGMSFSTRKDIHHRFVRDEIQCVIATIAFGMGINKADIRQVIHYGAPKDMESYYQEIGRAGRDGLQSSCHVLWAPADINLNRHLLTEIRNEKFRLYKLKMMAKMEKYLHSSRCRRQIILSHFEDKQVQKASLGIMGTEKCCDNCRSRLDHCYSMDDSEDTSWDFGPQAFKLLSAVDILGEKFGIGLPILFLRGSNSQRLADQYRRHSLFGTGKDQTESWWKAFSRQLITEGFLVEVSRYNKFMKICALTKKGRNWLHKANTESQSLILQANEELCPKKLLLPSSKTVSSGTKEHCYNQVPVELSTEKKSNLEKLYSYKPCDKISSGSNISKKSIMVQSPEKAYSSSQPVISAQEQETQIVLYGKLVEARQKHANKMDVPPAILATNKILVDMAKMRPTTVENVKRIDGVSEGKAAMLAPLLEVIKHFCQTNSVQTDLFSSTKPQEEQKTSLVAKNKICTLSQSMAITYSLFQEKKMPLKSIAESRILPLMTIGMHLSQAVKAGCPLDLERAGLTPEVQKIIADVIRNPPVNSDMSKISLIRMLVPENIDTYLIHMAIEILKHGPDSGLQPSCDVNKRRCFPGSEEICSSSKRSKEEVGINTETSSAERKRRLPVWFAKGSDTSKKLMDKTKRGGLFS

| Compound | pIC50 |
| --- | --- |
| CCc1c(N2CCN(C(=O)c3ncnc(C)c3O)CC2)c(=O)n2nc(-c3ccc4nc(N5CCOCC5)sc4c3)nc2n1CC(=O)Nc1ccc(C(F)(F)F)cc1Cl [Example 171, N-(2-chloro-4-(trifluoromethyl)phenyl)-2-(5-ethyl-6-(4-(5-hydroxy-6-methylpyrimidine-4-carbonyl)piperazin-1-yl)-2-(2-morpholinobenzo[d]thiazol-6-yl)-7-oxo-[1,2,4]triazolo[1,5-a]pyrimidin-4(7H)-yl)acetamide] | 7.00 to 9.00 |
| CCc1c(N2CCN(C(=O)c3ccccc3O)CC2)c(=O)n2nc(C3=CCCCCC3)nc2n1CC(=O)Nc1ccc(C(F)(F)F)cc1Cl [Example 10, N-(2-chloro-4-(trifluoromethyl)phenyl)-2-(2-(cyclohept-1-en-1-yl)-5-ethyl-6-(4-(2-hydroxybenzoyl)piperazin-1-yl)-7-oxo-[1,2,4]triazolo[1,5-a]pyrimidin-4(7H)-yl)acetamide] | 7.00 to 9.00 |
| CCc1c(C2CCN(C(=O)c3ncnc(C)c3O)CC2)c(=O)n2nc(C3=CCCCCC3)nc2n1CC(=O)Nc1ccc(S(F)(F)(F)(F)F)cc1 [Example 92, 2-(2-(cyclohept-1-en-1-yl)-5-ethyl-6-(1-(5-hydroxy-6-methylpyrimidine-4-carbonyl)piperidin-4-yl)-7-oxo-[1,2,4]triazolo[1,5-a]pyrimidin-4(7H)-yl)-N-(4-(pentafluoro-λ^6-sulfaneyl)phenyl)acetamide] | 7.00 to 9.00 |
| CCc1c(N2CCN(C(=O)c3ncnc(C)c3O)CC2)c(=O)n2nc(-c3ccn4ccnc4c3)nc2n1CC(=O)Nc1ccc(C(F)(F)F)cc1Cl [Example 136, N-(2-chloro-4-(trifluoromethyl)phenyl)-2-(5-ethyl-6-(4-(5-hydroxy-6-methylpyrimidine-4-carbonyl)piperazin-1-yl)-2-(imidazo[1,2-a]pyridin-7-yl)-7-oxo-[1,2,4]triazolo[1,5-a]pyrimidin-4(7H)-yl)acetamide] | 7.00 to 9.00 |
| CCc1c(N2CCN(C(=O)c3ncnc(C)c3O)CC2)c(=O)n2nc(C=C3CCOCC3)nc2n1CC(=O)Nc1ccc(C(F)(F)F)cc1Cl [Example 21, N-(2-chloro-4-(trifluoromethyl)phenyl)-2-(5-ethyl-6-(4-(5-hydroxy-6-methylpyrimidine-4-carbonyl)piperazin-1-yl)-7-oxo-2-((tetrahydro-4H-pyran-4-ylidene)methyl)-[1,2,4]triazolo[1,5-a]pyrimidin-4(7H)-yl)acetamide] | 7.00 to 9.00 |
| CCc1c(N2CCN(C(=O)c3ccncc3O)CC2)c(=O)n2nc(C3=CCCCCC3)nc2n1CC(=O)Nc1ccc(C(F)(F)F)cc1OC [Example 43, 2-(2-(cyclohept-1-en-1-yl)-5-ethyl-6-(4-(3-hydroxyisonicotinoyl)piperazin-1-yl)-7-oxo-[1,2,4]triazolo[1,5-a]pyrimidin-4(7H)-yl)-N-(2-methoxy-4-(trifluoromethyl)phenyl)acetamide] | 7.00 to 9.00 |
| [2H]C([2H])([2H])Sc1ccc(NC(=O)Cn2c(CC)c(N3CCN(C(=O)c4ncnc(C)c4O)CC3)c(=O)n3nc(C4=CCCCOC4)nc23)c(Cl)c1 [Example 166, N-(2-chloro-4-((methyl-d3)thio)phenyl)-2-(5-ethyl-6-(4-(5-hydroxy-6-methylpyrimidine-4-carbonyl)piperazin-1-yl)-7-oxo-2-(2,5,6,7-tetrahydrooxepin-3-yl)-[1,2,4]triazolo[1,5-a]pyrimidin-4(7H )-yl)acetamide] | 7.00 to 9.00 |
| CCc1c(N2CCN(C(=O)c3ncnc(C)c3O)CC2)c(=O)n2nc(/C=C/c3ccccn3)nc2n1CC(=O)Nc1ccc(C(F)(F)F)cc1Cl [Example 37, (E)-N-(2-chloro-4-(trifluoromethyl)phenyl)-2-(5-ethyl-6-(4-(5-hydroxy-6-methylpyrimidine-4-carbonyl)piperazin-1-yl)-7-oxo-2-(2-(pyridin-2-yl)vinyl)-[1,2,4]triazolo[1,5-a]pyrimidin-4(7H)-yl)a cetamide] | 7.00 to 9.00 |
| CCc1c(N2CCN(C(=O)c3ncnc(C)c3O)CC2)c(=O)n2nc(N3CCC4(CCNC4=O)CC3)nc2n1CC(=O)Nc1ccc(C(F)(F)F)cc1Cl [Example 13, N-(2-chloro-4-(trifluoromethyl)phenyl)-2-(5-ethyl-6-(4-(5-hydroxy-6-methylpyrimidine-4-carbonyl)piperazin-1-yl)-7-oxo-2-(1-oxo-2,8-diazaspiro[4.5]decan-8-yl)-[1,2,4]triazolo[1,5-a]pyrimidin-4(7H)-yl)acetamide] | 7.00 to 9.00 |
| CCc1c(N2CCN(C(=O)c3ncnc(C)c3O)CC2)c(=O)n2nc(/C=C/C(=O)N3CCC3)nc2n1CC(=O)Nc1ccc(C(F)(F)F)cc1Cl [Example 194, (E)-2-(2-(3-(azetidin-1-yl)-3-oxoprop-1-en-1-yl)-5-ethyl-6-(4-(5-hydroxy-6-methylpyrimidine-4-carbonyl)piperazin-1-yl)-7-oxo-[1,2,4]triazolo[1,5-a]pyrimidin-4(7H)-yl)-N-(2-chloro-4-(trifluor omethyl)phenyl)acetamide] | 7.00 to 9.00 |

Other lines, results leading:

| pIC50 | Compound |
| --- | --- |
| 7.00 to 9.00 | CCc1c(N2CCN(C(=O)c3ncnc(C)c3O)CC2)c(=O)n2nc(C3=CC4(C3)CC(C(N)=O)C4)nc2n1CC(=O)Nc1ccc(C(F)(F)F)cc1Cl (centres unmarked) [Example 119, 6-(4-(2-((2-chloro-4-(trifluoromethyl)phenyl)amino)-2-oxoethyl)-5-ethyl-6-(4-(5-hydroxy-6-methylpyrimidine-4-carbonyl)piperazin-1-yl)-7-oxo-4,7-dihydro-[1,2,4]triazolo[1,5-a]pyrimidin-2-yl)spiro[3.3]hept-5-ene-2-carboxamide] |
| 7.00 to 9.00 | CCc1c(N2CCN(C(=O)c3ncnc(C)c3O)CC2)c(=O)n2nc(-c3ccc4c(c3)OCC4)nc2n1CC(=O)Nc1ccc(C(F)(F)F)cc1Cl [Example 81, N-(2-chloro-4-(trifluoromethyl)phenyl)-2-(2-(2,3-dihydrobenzofuran-6-yl)-5-ethyl-6-(4-(5-hydroxy-6-methylpyrimidine-4-carbonyl)piperazin-1-yl)-7-oxo-[1,2,4]triazolo[1,5-a]pyrimidin-4(7H)-yl)acetamide] |
| 7.00 to 9.00 | CCc1c(N2CCN(C(=O)c3ncnc(C)c3O)CC2)c(=O)n2nc(C3=CC4CC4C3)nc2n1CC(=O)Nc1ccc(SC(F)(F)F)cc1 (centres unmarked) [Example 177, 2-(2-(bicyclo[3.1.0]hex-2-en-3-yl)-5-ethyl-6-(4-(5-hydroxy-6-methylpyrimidine-4-carbonyl)piperazin-1-yl)-7-oxo-[1,2,4]triazolo[1,5-a]pyrimidin-4(7H)-yl)-N-(4-((trifluoromethyl)thio)phenyl)ac etamide] |
| 7.00 to 9.00 | CCc1c(N2CCN(C(=O)c3ncnc(C)c3O)CC2)c(=O)n2nc(C=C3CCCC3)nc2n1CC(=O)Nc1ccc(C(F)(F)F)cc1Cl [Example 117, N-(2-chloro-4-(trifluoromethyl)phenyl)-2-(2-(cyclopentylidenemethyl)-5-ethyl-6-(4-(5-hydroxy-6-methylpyrimidine-4-carbonyl)piperazin-1-yl)-7-oxo-[1,2,4]triazolo[1,5-a]pyrimidin-4(7H)-yl)a cetamide] |
| > 9.00 | CCc1c(N2CCN(C(=O)c3ncnc(C)c3O)CC2)c(=O)n2nc(C3=CCCCCC3)nc2n1CC(=O)Nc1ccc(OC(F)(F)F)cc1 [Example 95, 2-(2-(cyclohept-1-en-1-yl)-5-ethyl-6-(4-(5-hydroxy-6-methylpyrimidine-4-carbonyl)piperazin-1-yl)-7-oxo-[1,2,4]triazolo[1,5-a]pyrimidin-4(7H)-yl)-N-(4-(trifluoromethoxy)phenyl)acetamide] |
| 7.00 to 9.00 | CCc1c(N2CCN(C(=O)c3ncnc(C)c3O)CC2)c(=O)n2nc(-c3ccc4scnc4c3)nc2n1CC(=O)Nc1ccc(C(F)(F)F)cc1Cl [Example 100, 2-(2-(benzo[d]thiazol-5-yl)-5-ethyl-6-(4-(5-hydroxy-6-methylpyrimidine-4-carbonyl)piperazin-1-yl)-7-oxo-[1,2,4]triazolo[1,5-a]pyrimidin-4(7H)-yl)-N-(2-chloro-4-(trifluoromethyl)phenyl)acetamide] |
| 7.00 to 9.00 | CCc1c(N2CCN(C(=O)c3ncnc(C)c3O)CC2)c(=O)n2nc(C3CCCC3)nc2n1CC(=O)Nc1ccc(C(F)(F)F)cc1Cl [Example 2, N-(2-Chloro-4-(trifluoromethyl)phenyl)-2-(2-cyclopentyl-5-ethyl-6-(4-(5-hydroxy-6-methylpyrimidine-4-carbonyl)piperazin-1-yl)-7-oxo-[1,2,4]triazolo[1,5-a]pyrimidin-4(7H)-yl)acetamide] |
| 7.00 to 9.00 | CCc1c(N2CCN(C(=O)c3ncnc(C)c3O)CC2)c(=O)n2nc(-c3ccc4c(c3)ncn4C)nc2n1CC(=O)Nc1ccc(C(F)(F)F)cc1Cl [Example 111, N-(2-chloro-4-(trifluoromethyl)phenyl)-2-(5-ethyl-6-(4-(5-hydroxy-6-methylpyrimidine-4-carbonyl)piperazin-1-yl)-2-(1-methyl-1H-benzo[d]imidazol-5-yl)-7-oxo-[1,2,4]triazolo[1,5-a]pyrimidin-4(7H)-yl)acetamide] |
| 7.00 to 9.00 | CCc1c(N2CCN(C(=O)c3ncnc(C)c3O)CC2)c(=O)n2nc(/C=C(\C)C3CC3)nc2n1CC(=O)Nc1ccc(C(F)(F)F)cc1Cl [Example 36, (E)-N-(2-chloro-4-(trifluoromethyl)phenyl)-2-(2-(2-cyclopropylprop-1-en-1-yl)-5-ethyl-6-(4-(5-hydroxy-6-methylpyrimidine-4-carbonyl)piperazin-1-yl)-7-oxo-[1,2,4]triazolo[1,5-a]pyrimidin-4(7H)-yl)acetamide] |
| 7.00 to 9.00 | CCc1c(N2CCN(C(=O)c3ncnc(C)c3O)CC2)c(=O)n2nc(-c3ccc4c(c3)CC(=O)N4)nc2n1CC(=O)Nc1ccc(C(F)(F)F)cc1Cl [Example 141, N-(2-chloro-4-(trifluoromethyl)phenyl)-2-(5-ethyl-6-(4-(5-hydroxy-6-methylpyrimidine-4-carbonyl)piperazin-1-yl)-7-oxo-2-(2-oxoindolin-5-yl)-[1,2,4]triazolo[1,5-a]pyrimidin-4(7H)-yl)acetamide] |
